Experimental data reported in publication PMC11022729 (Advanced Science, 2024).

Assays:
[1] = molecular target: T1, purified human Slack (Homo sapiens, UniProt Q5JUK3); assay: Differential scanning fluorimetry (DSF) on purified Slack; format: binding; details: 100 µM ligand concentration; for melting temperature Tm of Slack: Tm without ligand 30 °C
T1 construct: NM_02 0822.3, residues 1–1235; green fluorescent protein (GFP) (C, cleaved yes); twin strep-II-tag (C, cleaved yes); made in house; host or cells: HEK293F cells, transient transfection
T1 sequence (Q5JUK3 1-1235 isoform Q5JUK3-3): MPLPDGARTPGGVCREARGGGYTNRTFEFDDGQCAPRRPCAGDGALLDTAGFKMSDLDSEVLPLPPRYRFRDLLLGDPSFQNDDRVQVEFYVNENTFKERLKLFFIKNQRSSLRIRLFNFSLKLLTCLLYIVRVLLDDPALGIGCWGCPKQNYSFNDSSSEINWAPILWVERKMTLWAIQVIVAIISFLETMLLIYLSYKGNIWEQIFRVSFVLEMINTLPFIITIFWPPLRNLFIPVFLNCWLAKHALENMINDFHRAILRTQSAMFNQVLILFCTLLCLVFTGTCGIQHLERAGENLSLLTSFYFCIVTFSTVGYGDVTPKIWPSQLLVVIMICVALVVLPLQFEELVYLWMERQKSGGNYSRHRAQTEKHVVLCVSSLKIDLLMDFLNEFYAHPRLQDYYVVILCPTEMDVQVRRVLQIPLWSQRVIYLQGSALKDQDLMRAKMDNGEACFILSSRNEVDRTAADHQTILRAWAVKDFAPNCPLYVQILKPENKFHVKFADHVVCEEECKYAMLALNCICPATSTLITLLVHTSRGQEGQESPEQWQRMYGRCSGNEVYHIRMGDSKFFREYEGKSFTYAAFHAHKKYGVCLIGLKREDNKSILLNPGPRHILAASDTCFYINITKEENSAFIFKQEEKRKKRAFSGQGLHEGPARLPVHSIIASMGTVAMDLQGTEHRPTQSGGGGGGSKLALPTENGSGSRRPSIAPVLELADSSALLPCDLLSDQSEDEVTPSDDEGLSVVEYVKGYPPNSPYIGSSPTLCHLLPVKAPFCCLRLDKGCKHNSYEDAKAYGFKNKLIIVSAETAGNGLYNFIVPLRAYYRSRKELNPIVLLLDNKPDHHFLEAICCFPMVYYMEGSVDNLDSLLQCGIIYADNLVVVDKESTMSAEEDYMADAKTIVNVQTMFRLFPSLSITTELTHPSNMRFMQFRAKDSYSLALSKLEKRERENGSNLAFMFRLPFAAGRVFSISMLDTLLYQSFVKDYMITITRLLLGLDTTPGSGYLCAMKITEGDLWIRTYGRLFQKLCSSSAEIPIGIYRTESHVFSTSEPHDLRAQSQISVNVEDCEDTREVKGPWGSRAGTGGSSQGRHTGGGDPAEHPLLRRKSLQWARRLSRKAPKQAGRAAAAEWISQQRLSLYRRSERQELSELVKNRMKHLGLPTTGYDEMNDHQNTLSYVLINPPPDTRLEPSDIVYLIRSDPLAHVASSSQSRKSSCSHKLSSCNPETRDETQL
Description: To confirm that the cellular effect of compound 6 was mediated by its direct interaction with Slack, ligand binding on purified human Slack (Figure S6A, Supporting Information) was assessed by differential scanning fluorimetry (DSF), thereby evaluating a ligand‐dependent shift of the protein melting temperature (T m). The cysteine‐reacting dye 7‐diethylamino‐3‐(4‐maleimidophenyl)−4‐methylcoumarin (CPM), which binds to cysteine residues that are accessible during protein unfolding, was used as an indicator for protein unfolding. […] In the presence of a Slack inhibitor (compound 31 from ref. [27]), known to directly interact with the protein and therefore used as a positive control, T m saturated at 45.7 ± 3.2 °C at a ligand concentration of 100 µM (Figure S6B, Supporting Information), indicating a notable stabilization of Slack.
The melting temperature was determined from the fluorescence of 7‐diethylamino‐3‐(4‐maleimidophenyl)−4‐methylcoumarin (CPM) dye. […] Five microliters of the CPM dye (15 µg mL^−1 CPM final concentration) in the SEC buffer was added to the protein compound mixture and further incubated for 30 min on ice in the dark. The samples were centrifuged at 15 000 × g at 4 °C for 10 min to remove aggregates. Melting curves were recorded in an RT‐PCR (Thermo Fischer) using a temperature range of 10–80 °C in 1 °C‐increments, increasing every 75 s. The CPM dye was excited at a wavelength of 365 nm and the emission was measured at 470 nm.

[2] = tested on: mice; assay: Accelerating rotarod test; format: in vivo, mouse; details: 15 min after dosing
Description: As a prerequisite for interpreting itch behavior experiments, we first tested motor function after systemic dosing.
Mice were placed on a rotarod treadmill (Ugo Basile, Italy) at increasing speed (4–40 rpm over 300 s) and trained for 4–5 consecutive days. Only mice that reached 300 s without falling off during the training sessions were included in the experiment. In the vertical pole test, the mice were placed head‐upward on top of a vertical pole with a rough surface (diameter, 1 cm; height, 40 cm), and the time until the animals reached the ground was recorded (cut‐off time 20 s). Only mice that reached the ground within 10 s in the baseline measurements were included in the experiment. […] The means of three trials at each time point were calculated for further analyses.

[3] = tested on: mice; assay: Chloroquine-induced itch behavior, wildtype mice; format: in vivo, mouse
Description: (§1) We then assessed the antipruritic efficacy of compound 6 in a model of histamine‐independent itching induced by the antimalarial drug chloroquine.
(§2) Three to four days before the day of the experiment, the fur on the dorsolateral aspect of the neck was shaved under brief isoflurane anesthesia. On the testing day, the mice were habituated to a Plexiglas cylinder (30 cm in diameter) for 30 min. Compound 6 hydrochloride or vehicle were i.p. or p.o. administered, and 15 min later, the pruritogens chloroquine (200 µg), SLIGRL (100 µg), β‐alanine (100 µg), or histamine (800 µg), all dissolved in 0.9% saline (20 µL), were injected subcutaneously into the nape of the neck.^[ [29] ^] Number of scratching bouts directed toward the nape of the neck was assessed over 30 min by videotaping. In experiments with the Slack inhibitor, compound 31 (ref. [27]; 30 mg kg^−1 in 0.9% NaCl with 2% DMSO and 10% Kolliphor) was i.p. administered 5 min prior to compound 6.

[4] = tested on: Slack−/− mice; assay: Chloroquine-induced itch behavior, Slack knockout mice; format: in vivo, mouse
Description: as §1, §2

SMILES | increase in Tm [1] | melting temperature Tm of Slack [1] | motor function, accelerating rotarod test ([2]; 3–30 mg i.p.) | chloroquine-induced scratching behavior ([3]; 15 mg kg−1 p.o.) | chloroquine-induced scratching behavior ([3]; 3, 10, or 30 mg kg−1 i.p. 15 min prior to s.c. chloroquine, scratching bouts over 30 min) | chloroquine-induced scratching ([4]; Slack−/− mice, i.p.) | motor function, accelerating rotarod test ([2]; dose of ≥ 0.39 mg kg−1 i.p.) | chloroquine-induced scratching behavior ([3]; wildtype mice, systemic low dose, preliminary experiments) | chloroquine-induced scratching behavior ([4]; Slack knockout mice, systemic low dose, preliminary experiments)
O=C(O)COCCN1CCN(C2=Nc3ccccc3Oc3ccc(Cl)cc32)CC1 [Compound 6] | 9.3 °C | 39.3 ± 0.9 °C | did not impair motor function | profound antipruritic effect | ameliorated scratching behavior in a dose‐dependent manner | did not significantly alter | – | – | –
CN1CCN(C2=Nc3ccccc3Oc3ccc(Cl)cc32)CC1 [Loxapine, reference compound] | 7.8 °C | 37.8 ± 1.3 °C | – | – | – | – | markedly reduced the ability of the mice to perform | considerably alleviated | did not affect
